# Target: VLA-4-IgG chimera protein (Homo sapiens, UniProt P05556+P13612)
# Assay: Inhibitory effect against binding between CS-1 peptide and VLA-4-IgG chimera protein
# Details: binding of VLA-4-IgG chimera protein to immobilized CS-1 peptide conjugate; compound pre-reacted with chimera protein 20 min; 30° C. 3 hours; absorbance 490 nm
# Experimental: The inhibitory activity of the compound according to the present invention against the adhesion of VLA-4 may be determined by using an adhesion-measuring system in which the adhesion between VLA-4-expressing cells such as Ramos cells or Jurkat cells and fibronectin or fibronectin fragment such as a peptide containing CS-1 sequence (Gly Pro Glu Ile Leu Asp Val Pro Ser Thr) (hereinafter referred to as “CS-1 peptide”), immobilized on an immunoplate is measured. Alternatively, a binding-measuring system in which the adhesion between VLA-4 protein and fibronectin or fibronectin fragment such as CS-1 peptide, immobilized on an immunoplate may be used. In the present invention, it is preferred to evaluate the inhibitory activity of a compound using a binding-measuring system in which adhesion between a chimera protein of VLA-4-immunoglobulin (VLA-4-IgG chimera protein) and CS-1 peptide (Japanese Patent Application No. H9-234544), but the method is not restricted thereto. The “VLA-4-IgG chimera protein” herein means the heterodimer complex of the chimera protein between α4 of VLA-4 and immunoglobulin (hereinafter referred to as “VLAα4-IgG chimera protein”) and a chimera protein between β1 of VLA-4 and immunoglobulin (hereinafter referred to as “VLAβ1-IgG chimera protein”). As the immunoglobulin, although heavy chain or light chain of IgG, IgM or the like may be used, IgG1 heavy chain is used in the present invention. When testing the inhibitory effect of a compound, it is preferred to mix VLA-4-IgG chimera protein and the test compound previously.
# In accordance with the teaching of a report (Humphrise, M. J. et al. J.Bio.Chem.,262,6886-6892(1987)), a conjugate between a peptide (Gys Leu His Gly Pro Glu Glu Ile Leu Asp Val Pro Ser Thr) containing CS-1 sequence and rabbit IgG (Sigma) was prepared. This was diluted with phosphate buffer (hereinafter referred to as “PBS(−)” for short), and the obtained solution was placed in the wells of a 96-well immunoplate (NUNC) in an amount of 100 μl/well, followed by leaving to stand the immunoplate at 4° C. for 16 hours to immobilize the conjugate.
# The wells were then washed twice with PBS(−), and 1% BSA solution in PBS, which BSA was heated at 80° C. for 10 minutes, was placed in each well in an amount of 300 μl/well. The immunoplate was left to stand at 4° C. for 3 hours, and then the solution in each well was removed by suction.
# Each compound and VLA-4-IgG chimera protein (100 μl) were preliminarily reacted at room temperature for 20 minutes, and then the resulting mixture was allowed to react with the CS-1peptide in each well at 30° C. for 3 hours. Thereafter, non-bound VLA-4-IgG chimera protein was removed by suction, and each well was washed twice with 0.1% BSA-containing TBS buffer (150 mM NaCl, 25 mM Tris-HCl, 1 mM MnCl2, PH7.4). To the bound VLA-4-IgG chimera protein, biotin-labelled anti-human IgG antibody (Vector) as a primary antibody was added, and then avidin-labelled horse radish peroxidase (Sigma) as a secondary antibody was added, thereby allowing the reactions. Then o-phenylenediamine as a substrate was added to color the reaction solution, and the absorbance at 490 nm was measured. From this absorbance, the binding inhibitory activity of each compound was determined.
# Sequence of VLA-4-IgG chimera protein (P13612 with tags, fused parts or gaps limits assumed): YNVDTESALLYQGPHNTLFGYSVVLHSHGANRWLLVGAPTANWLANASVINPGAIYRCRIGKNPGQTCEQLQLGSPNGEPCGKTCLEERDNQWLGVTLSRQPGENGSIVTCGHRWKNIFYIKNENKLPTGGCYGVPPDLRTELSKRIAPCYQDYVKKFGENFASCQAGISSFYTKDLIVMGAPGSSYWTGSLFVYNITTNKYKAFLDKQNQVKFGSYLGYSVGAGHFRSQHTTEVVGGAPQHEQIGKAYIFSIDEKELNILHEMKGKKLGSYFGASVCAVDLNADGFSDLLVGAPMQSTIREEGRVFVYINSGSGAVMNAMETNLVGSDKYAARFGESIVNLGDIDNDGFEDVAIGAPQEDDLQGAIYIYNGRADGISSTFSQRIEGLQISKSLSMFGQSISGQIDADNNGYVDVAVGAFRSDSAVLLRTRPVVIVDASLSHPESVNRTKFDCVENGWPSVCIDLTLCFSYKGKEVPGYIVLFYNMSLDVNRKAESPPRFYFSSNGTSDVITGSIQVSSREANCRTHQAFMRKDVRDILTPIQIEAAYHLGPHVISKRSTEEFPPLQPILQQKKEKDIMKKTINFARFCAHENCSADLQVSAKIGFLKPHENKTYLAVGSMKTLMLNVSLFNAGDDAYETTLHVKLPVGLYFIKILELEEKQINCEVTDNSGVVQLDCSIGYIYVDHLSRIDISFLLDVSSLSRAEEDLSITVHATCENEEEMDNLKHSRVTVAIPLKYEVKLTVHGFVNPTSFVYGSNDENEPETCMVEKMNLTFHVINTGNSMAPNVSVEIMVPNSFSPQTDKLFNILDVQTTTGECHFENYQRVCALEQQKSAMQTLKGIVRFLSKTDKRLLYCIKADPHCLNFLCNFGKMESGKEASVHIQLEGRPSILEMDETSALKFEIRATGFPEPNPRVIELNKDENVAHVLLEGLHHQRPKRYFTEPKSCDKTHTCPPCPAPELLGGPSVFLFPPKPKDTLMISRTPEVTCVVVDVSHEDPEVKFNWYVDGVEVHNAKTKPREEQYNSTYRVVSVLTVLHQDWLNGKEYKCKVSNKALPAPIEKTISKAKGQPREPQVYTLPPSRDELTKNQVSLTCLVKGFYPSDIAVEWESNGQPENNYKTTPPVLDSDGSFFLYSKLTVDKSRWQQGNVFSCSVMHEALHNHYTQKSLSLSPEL
# Sequence of VLA-4-IgG chimera protein (P05556 with tags, fused parts or gaps limits assumed): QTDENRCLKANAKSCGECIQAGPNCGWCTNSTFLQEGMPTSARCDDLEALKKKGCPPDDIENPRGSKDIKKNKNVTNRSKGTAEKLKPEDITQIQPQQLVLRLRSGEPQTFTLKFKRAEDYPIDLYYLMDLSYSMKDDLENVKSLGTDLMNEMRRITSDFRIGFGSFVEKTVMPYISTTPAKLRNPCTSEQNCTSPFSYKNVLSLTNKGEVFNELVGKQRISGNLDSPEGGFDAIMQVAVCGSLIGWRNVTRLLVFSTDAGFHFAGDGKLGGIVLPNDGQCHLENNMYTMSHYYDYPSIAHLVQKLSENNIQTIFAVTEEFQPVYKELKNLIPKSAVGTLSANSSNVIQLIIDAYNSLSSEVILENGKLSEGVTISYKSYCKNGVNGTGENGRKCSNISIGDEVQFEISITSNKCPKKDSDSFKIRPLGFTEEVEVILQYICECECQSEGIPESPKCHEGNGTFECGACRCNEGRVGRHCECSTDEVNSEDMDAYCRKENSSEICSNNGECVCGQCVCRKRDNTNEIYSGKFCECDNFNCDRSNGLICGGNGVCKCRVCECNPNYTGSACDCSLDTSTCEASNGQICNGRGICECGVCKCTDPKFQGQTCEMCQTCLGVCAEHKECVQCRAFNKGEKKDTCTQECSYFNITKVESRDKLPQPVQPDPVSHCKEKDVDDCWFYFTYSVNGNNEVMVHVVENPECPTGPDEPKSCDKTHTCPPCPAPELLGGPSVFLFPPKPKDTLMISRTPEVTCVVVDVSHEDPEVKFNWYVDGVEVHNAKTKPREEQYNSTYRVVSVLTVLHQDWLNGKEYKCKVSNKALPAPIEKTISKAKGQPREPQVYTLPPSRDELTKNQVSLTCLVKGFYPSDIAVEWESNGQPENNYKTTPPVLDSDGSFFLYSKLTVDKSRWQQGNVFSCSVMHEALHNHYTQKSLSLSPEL
row,IC50,SMILES
1,6.1 nM,"O=C(N[C@@H](CNC(=O)N1CCC2(CC1)C(=O)NCN2c1ccccc1)C(=O)O)c1c(Cl)cccc1Cl [Compound 3, 3-((2,4,8-triaza-1-oxo-4-phenylspiro[4.5]dec-8-yl)carbonylamino)-2-((2,6-dichlorophenyl)carbonylamino)propanoic acid]"
2,18 nM,"COc1cccc(OC)c1C(=O)N[C@@H](CNC(=O)N1CCC2(CC1)C(=O)N(Cc1ccccc1)CN2c1ccccc1)C(=O)O [Compound 7, 2-((2,6-dimethoxyphenyl)carbonylamino)-3-((2,4,8-triaza-1-oxo-4-phenyl-2-benzylspiro[4.5]dec-8-yl)carbonylamino)propanoic acid]"
3,2.9 nM,"Cc1cccc(C)c1C(=O)N[C@@H](CNC(=O)N1CCC2(CC1)C(=O)N(Cc1ccccc1)CN2c1ccccc1)C(=O)O [Compound 13, 2-((2,6-dimethylphenyl)carbonylamino)-3-((2,4,8-triaza-1-oxo-4-phenyl-2-benzylspiro[4.5]dec-8-yl)carbonylamino)propanoic acid]"
4,2.1 nM,CC(C)C(=O)NC1(c2ccccc2)CCN(C(=O)N[C@@H](CNC(=O)N2CCC3(CC2)C(=O)N(Cc2ccccc2)CN3c2ccccc2)C(=O)O)CC1 [Compound 27]
5,0.98 nM,"O=C(O)[C@H](CNC(=O)N1CCC2(CC1)C(=O)N(Cc1ccccc1)CN2c1ccccc1)NC(=O)N1CCC(n2c(=O)[nH]c3ccccc32)CC1 [Compound 31, 2-((4-(2-oxo(3-hydrobenzimidazolyl))piperidyl)carbonylamino)-3-((2,4,8-triaza-1-oxo-4-phenyl-2-benzylspiro[4.5]dec-8-yl)carbonylamino)propanoic acid]"
